Experimental data from the NIST ThermoML archive (doi:10.1021/je5000132).

Test: xn = mol fraction of the nth substance listed
Conditions: for speed of sound: 100 kPa, Pulse-echo method; for speed of sound / viscosity / mass density: Liquid; for viscosity / mass density: 101 kPa; for viscosity: Concentric cylinders viscometry; for mass density: Vibrating tube method; for surface tension liquid-gas: 294.7 K, Drop volume

CC(CC(C)(C)C)CC(C)(C)C [2,2,4,6,6-pentamethylheptane] + CCCCCCCCCCCC
Conditions	mass density [kg/m3]	speed of sound [m/s]	viscosity [mPa·s]
293.15 K, x1 = 0.1	748.467	1288.5	1.45
293.15 K, x1 = 0.2	748.123	1279.3	1.42
293.15 K, x1 = 0.2885	747.857	1271.4	1.4
293.15 K, x1 = 0.3998	747.387	1261.4	1.37
293.15 K, x1 = 0.4999	747.034	1251.6	1.35
293.15 K, x1 = 0.6501	746.519	1238	1.33
293.15 K, x1 = 0.7998	745.947	1223.2	1.31
293.15 K, x1 = 1	–	1203.6	–
303.15 K, x1 = 0.1	741.234	1250.3	1.22
303.15 K, x1 = 0.2	740.898	1241.1	1.2
303.15 K, x1 = 0.2885	740.654	1233.2	1.18
303.15 K, x1 = 0.3998	740.15	1223.2	1.16
303.15 K, x1 = 0.4999	739.835	1213.4	1.15
303.15 K, x1 = 0.6501	739.313	1199.6	1.13
303.15 K, x1 = 0.7998	738.715	1184.7	1.12
303.15 K, x1 = 1	–	1164.8	–
313.15 K, x1 = 0.1	733.97	1212.5	1.03
313.15 K, x1 = 0.2	733.64	1203.3	1.02
313.15 K, x1 = 0.2885	733.415	1195.5	1
313.15 K, x1 = 0.3998	732.953	1185.4	0.988
313.15 K, x1 = 0.4999	732.598	1175.7	0.977
313.15 K, x1 = 0.6501	732.066	1161.8	0.962
313.15 K, x1 = 0.7998	731.445	1146.8	0.952
313.15 K, x1 = 1	–	1126.7	–
323.15 K, x1 = 0.1	726.674	1175.3	0.898
323.15 K, x1 = 0.2	726.352	1166.2	0.885
323.15 K, x1 = 0.2885	726.139	1158.3	0.876
323.15 K, x1 = 0.3998	725.68	1148.3	0.863
323.15 K, x1 = 0.4999	725.324	1138.5	0.856
323.15 K, x1 = 0.6501	724.781	1124.6	0.844
323.15 K, x1 = 0.7998	724.136	1109.5	0.836
323.15 K, x1 = 1	–	1089.3	–
333.15 K, x1 = 0.1	719.342	1138.7	0.784
333.15 K, x1 = 0.2	719.024	1129.6	0.774
333.15 K, x1 = 0.2885	718.82	1121.7	0.766
333.15 K, x1 = 0.3998	718.363	1111.7	0.757
333.15 K, x1 = 0.4999	718.004	1101.9	0.75
333.15 K, x1 = 0.6501	717.449	1087.9	0.741
333.15 K, x1 = 0.7998	716.783	1072.8	0.734
333.15 K, x1 = 1	–	1052.5	–
343.15 K, x1 = 0.1	711.9	–	0.691
343.15 K, x1 = 0.2	711.7	–	0.683
343.15 K, x1 = 0.2885	711.5	–	0.677
343.15 K, x1 = 0.3998	710.9	–	0.668
343.15 K, x1 = 0.4999	710.6	–	0.664
343.15 K, x1 = 0.6501	710	–	0.656
343.15 K, x1 = 0.7998	709.4	–	0.651
353.15 K, x1 = 0.1	704.4	–	0.614
353.15 K, x1 = 0.2	704.1	–	0.607
353.15 K, x1 = 0.2885	703.8	–	0.603
353.15 K, x1 = 0.3998	703.5	–	0.595
353.15 K, x1 = 0.4999	703	–	0.591
353.15 K, x1 = 0.6501	702.5	–	0.584
353.15 K, x1 = 0.7998	701.8	–	0.58
363.15 K, x1 = 0.1	696.8	–	0.551
363.15 K, x1 = 0.2	696.5	–	0.545
363.15 K, x1 = 0.2885	696.3	–	0.526
363.15 K, x1 = 0.3998	695.8	–	0.534
363.15 K, x1 = 0.4999	695.4	–	0.531
363.15 K, x1 = 0.6501	694.8	–	0.525
363.15 K, x1 = 0.7998	694.1	–	0.521
373.15 K, x1 = 0.1	689	–	0.498
373.15 K, x1 = 0.2	688.8	–	0.493
373.15 K, x1 = 0.2885	688.6	–	0.49
373.15 K, x1 = 0.3998	688.1	–	0.483
373.15 K, x1 = 0.4999	687.7	–	0.481
373.15 K, x1 = 0.6501	687.1	–	0.476
373.15 K, x1 = 0.7998	686.3	–	0.472

Conditions	surface tension liquid-gas [mN/m]
x1 = 0.1	24.3
x1 = 0.2	24.1
x1 = 0.2885	23.7
x1 = 0.3998	23.3
x1 = 0.4999	23.2
x1 = 0.6501	22.7
x1 = 0.7998	22.3
x1 = 1	21.8

CC(CC(C)(C)C)CC(C)(C)CC(C)(C)C (centres undefined) [2,2,4,4,6,8,8-heptamethylnonane] + CCCCCCCCCCCC
Conditions	mass density [kg/m3]	speed of sound [m/s]	viscosity [mPa·s]
293.15 K, x1 = 0.103	753.263	1295.6	1.59
293.15 K, x1 = 0.1677	756.137	1294.1	1.67
293.15 K, x1 = 0.2944	761.09	1292	1.84
293.15 K, x1 = 0.4191	765.497	1290.5	2.03
293.15 K, x1 = 0.5011	768.604	1289.5	2.19
293.15 K, x1 = 0.5955	771.819	1288.5	2.4
293.15 K, x1 = 0.7585	777.128	1287.2	2.83
293.15 K, x1 = 0.8985	781.527	1286.3	3.29
293.15 K, x1 = 1	784.457	1285.7	3.7
303.15 K, x1 = 0.103	746.092	1257.5	1.32
303.15 K, x1 = 0.1677	749.065	1256.2	1.39
303.15 K, x1 = 0.2944	754.068	1254.3	1.53
303.15 K, x1 = 0.4191	758.54	1252.9	1.67
303.15 K, x1 = 0.5011	761.702	1252	1.8
303.15 K, x1 = 0.5955	764.964	1251	1.95
303.15 K, x1 = 0.7585	770.346	1249.8	2.28
303.15 K, x1 = 0.8985	774.79	1248.9	2.62
303.15 K, x1 = 1	777.761	1248.5	2.92
313.15 K, x1 = 0.103	738.895	1219.8	1.12
313.15 K, x1 = 0.1677	741.921	1218.7	1.17
313.15 K, x1 = 0.2944	747.011	1217	1.28
313.15 K, x1 = 0.4191	751.556	1215.7	1.4
313.15 K, x1 = 0.5011	754.77	1214.9	1.5
313.15 K, x1 = 0.5955	758.085	1214.1	1.63
313.15 K, x1 = 0.7585	763.538	1213	1.88
313.15 K, x1 = 0.8985	768.028	1212.2	2.14
313.15 K, x1 = 1	771.044	1211.8	2.37
323.15 K, x1 = 0.103	731.669	1182.8	0.966
323.15 K, x1 = 0.1677	734.749	1181.8	1.01
323.15 K, x1 = 0.2944	739.926	1180.3	1.1
323.15 K, x1 = 0.4191	744.546	1179.2	1.19
323.15 K, x1 = 0.5011	747.812	1178.5	1.27
323.15 K, x1 = 0.5955	751.18	1177.8	1.37
323.15 K, x1 = 0.7585	756.708	1176.8	1.57
323.15 K, x1 = 0.8985	761.266	1176.3	1.77
323.15 K, x1 = 1	764.316	1176	1.95
333.15 K, x1 = 0.103	724.407	1146.3	0.84
333.15 K, x1 = 0.1677	727.54	1145.4	0.877
333.15 K, x1 = 0.2944	732.805	1144.2	0.95
333.15 K, x1 = 0.4191	737.503	1143.3	1.03
333.15 K, x1 = 0.5011	740.821	1142.7	1.09
333.15 K, x1 = 0.5955	744.244	1142.2	1.17
333.15 K, x1 = 0.7585	749.858	1141.4	1.33
333.15 K, x1 = 0.8985	754.484	1141	1.49
333.15 K, x1 = 1	757.571	1140.8	1.63
343.15 K, x1 = 0.103	717.1	–	0.738
343.15 K, x1 = 0.1677	720.2	–	0.769
343.15 K, x1 = 0.2944	725.6	–	0.83
343.15 K, x1 = 0.4191	730.4	–	0.895
343.15 K, x1 = 0.5011	733.7	–	0.949
343.15 K, x1 = 0.5955	737.2	–	1.01
343.15 K, x1 = 0.7585	743	–	1.14
343.15 K, x1 = 0.8985	747.6	–	1.27
343.15 K, x1 = 1	750.7	–	1.39
353.15 K, x1 = 0.103	709.6	–	0.654
353.15 K, x1 = 0.1677	712.7	–	0.681
353.15 K, x1 = 0.2944	718.2	–	0.732
353.15 K, x1 = 0.4191	723.1	–	0.787
353.15 K, x1 = 0.5011	726.5	–	0.832
353.15 K, x1 = 0.5955	730.1	–	0.885
353.15 K, x1 = 0.7585	736	–	0.994
353.15 K, x1 = 0.8985	740.7	–	1.1
353.15 K, x1 = 1	743.8	–	1.19
363.15 K, x1 = 0.103	702	–	0.585
363.15 K, x1 = 0.1677	705.3	–	0.608
363.15 K, x1 = 0.2944	710.8	–	0.652
363.15 K, x1 = 0.4191	715.8	–	0.698
363.15 K, x1 = 0.5011	719.2	–	0.737
363.15 K, x1 = 0.5955	722.9	–	0.782
363.15 K, x1 = 0.7585	728.9	–	0.873
363.15 K, x1 = 0.8985	733.6	–	0.963
363.15 K, x1 = 1	736.8	–	1.04
373.15 K, x1 = 0.103	694.5	–	0.528
373.15 K, x1 = 0.1677	697.8	–	0.548
373.15 K, x1 = 0.2944	703.5	–	0.586
373.15 K, x1 = 0.4191	708.5	–	0.626
373.15 K, x1 = 0.5011	712	–	0.659
373.15 K, x1 = 0.5955	715.8	–	0.697
373.15 K, x1 = 0.7585	721.8	–	0.775
373.15 K, x1 = 0.8985	726.6	–	0.85
373.15 K, x1 = 1	729.9	–	0.914

Conditions	surface tension liquid-gas [mN/m]
x1 = 0.1677	24.8
x1 = 0.2944	24.9
x1 = 0.4191	24.6
x1 = 0.5011	24.6
x1 = 0.5955	24.3
x1 = 0.7585	24.2
x1 = 0.8985	24.2
x1 = 1	24
